# According to ChEMBL document CHEMBL2073975, “Inflammatory cytokines, but not bile acids, regulate expression of murine hepatic anion transporters in endotoxemia” (J Pharmacol Exp Ther, 2002):
# Experiments:
# Format in all cases: functional, organism-based
# [1] = molecular target: ATP-binding cassette sub-family C member 3 (Mus musculus, UniProt B2RX12); assay: (§1) TP_TRANSPORTER: RT-PCR in vivo, liver of CD-1 mouse
# [2] = molecular target: Multidrug resistance-associated protein 1 (Mus musculus, UniProt O35379); assay: as §1
# [3] = molecular target: T1, Solute carrier organic anion transporter family member 1A1 (Mus musculus, UniProt Q9QXZ6); assay: as §1
# T1 sequence (Q9QXZ6 whole entry): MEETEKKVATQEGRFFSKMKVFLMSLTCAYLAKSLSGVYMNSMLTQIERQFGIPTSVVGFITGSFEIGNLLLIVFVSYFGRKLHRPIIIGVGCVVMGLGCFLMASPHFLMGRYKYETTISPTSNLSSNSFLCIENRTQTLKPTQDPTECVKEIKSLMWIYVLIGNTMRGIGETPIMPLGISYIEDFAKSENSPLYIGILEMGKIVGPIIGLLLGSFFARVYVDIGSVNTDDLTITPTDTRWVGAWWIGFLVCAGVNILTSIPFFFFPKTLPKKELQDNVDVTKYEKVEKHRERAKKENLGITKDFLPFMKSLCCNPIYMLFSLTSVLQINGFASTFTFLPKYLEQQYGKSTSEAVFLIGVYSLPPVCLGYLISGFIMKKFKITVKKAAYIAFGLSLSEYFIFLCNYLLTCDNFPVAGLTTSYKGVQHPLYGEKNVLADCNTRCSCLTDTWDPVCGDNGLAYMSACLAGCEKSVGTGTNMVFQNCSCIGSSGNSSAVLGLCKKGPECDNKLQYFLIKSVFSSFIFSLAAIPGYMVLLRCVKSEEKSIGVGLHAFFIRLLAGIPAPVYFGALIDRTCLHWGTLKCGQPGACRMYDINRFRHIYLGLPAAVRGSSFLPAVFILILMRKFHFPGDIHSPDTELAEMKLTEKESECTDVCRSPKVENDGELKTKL
# [4] = molecular target: T2, Solute carrier organic anion transporter family member 1A4 (Mus musculus, UniProt Q9EP96); assay: as §1
# T2 sequence (Q9EP96 whole entry): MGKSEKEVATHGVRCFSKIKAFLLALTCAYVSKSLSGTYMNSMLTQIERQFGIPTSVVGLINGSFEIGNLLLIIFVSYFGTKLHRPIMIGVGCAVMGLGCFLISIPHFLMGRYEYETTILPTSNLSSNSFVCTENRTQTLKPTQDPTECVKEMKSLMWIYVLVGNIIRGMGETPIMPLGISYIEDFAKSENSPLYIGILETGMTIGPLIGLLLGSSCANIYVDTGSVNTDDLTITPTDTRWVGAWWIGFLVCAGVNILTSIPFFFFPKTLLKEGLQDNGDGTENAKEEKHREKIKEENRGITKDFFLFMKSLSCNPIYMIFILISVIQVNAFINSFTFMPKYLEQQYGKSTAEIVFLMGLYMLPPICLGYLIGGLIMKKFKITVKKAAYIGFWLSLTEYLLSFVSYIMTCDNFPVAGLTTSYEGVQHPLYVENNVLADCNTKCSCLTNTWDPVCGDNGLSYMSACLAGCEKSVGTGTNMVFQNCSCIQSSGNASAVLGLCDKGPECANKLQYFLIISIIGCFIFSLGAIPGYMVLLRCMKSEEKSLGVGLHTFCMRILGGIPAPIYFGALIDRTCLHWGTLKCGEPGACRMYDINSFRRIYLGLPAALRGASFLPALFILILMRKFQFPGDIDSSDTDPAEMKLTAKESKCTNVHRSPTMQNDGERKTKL
# [5] = molecular target: ATP-binding cassette sub-family C member 2 (Mus musculus, UniProt Q8VI47); assay: as §1
# Bile salt export pump = molecular target: T3, Bile salt export pump (Mus musculus, UniProt Q9QY30); assay: as §1
# T3 sequence (Q9QY30 whole entry): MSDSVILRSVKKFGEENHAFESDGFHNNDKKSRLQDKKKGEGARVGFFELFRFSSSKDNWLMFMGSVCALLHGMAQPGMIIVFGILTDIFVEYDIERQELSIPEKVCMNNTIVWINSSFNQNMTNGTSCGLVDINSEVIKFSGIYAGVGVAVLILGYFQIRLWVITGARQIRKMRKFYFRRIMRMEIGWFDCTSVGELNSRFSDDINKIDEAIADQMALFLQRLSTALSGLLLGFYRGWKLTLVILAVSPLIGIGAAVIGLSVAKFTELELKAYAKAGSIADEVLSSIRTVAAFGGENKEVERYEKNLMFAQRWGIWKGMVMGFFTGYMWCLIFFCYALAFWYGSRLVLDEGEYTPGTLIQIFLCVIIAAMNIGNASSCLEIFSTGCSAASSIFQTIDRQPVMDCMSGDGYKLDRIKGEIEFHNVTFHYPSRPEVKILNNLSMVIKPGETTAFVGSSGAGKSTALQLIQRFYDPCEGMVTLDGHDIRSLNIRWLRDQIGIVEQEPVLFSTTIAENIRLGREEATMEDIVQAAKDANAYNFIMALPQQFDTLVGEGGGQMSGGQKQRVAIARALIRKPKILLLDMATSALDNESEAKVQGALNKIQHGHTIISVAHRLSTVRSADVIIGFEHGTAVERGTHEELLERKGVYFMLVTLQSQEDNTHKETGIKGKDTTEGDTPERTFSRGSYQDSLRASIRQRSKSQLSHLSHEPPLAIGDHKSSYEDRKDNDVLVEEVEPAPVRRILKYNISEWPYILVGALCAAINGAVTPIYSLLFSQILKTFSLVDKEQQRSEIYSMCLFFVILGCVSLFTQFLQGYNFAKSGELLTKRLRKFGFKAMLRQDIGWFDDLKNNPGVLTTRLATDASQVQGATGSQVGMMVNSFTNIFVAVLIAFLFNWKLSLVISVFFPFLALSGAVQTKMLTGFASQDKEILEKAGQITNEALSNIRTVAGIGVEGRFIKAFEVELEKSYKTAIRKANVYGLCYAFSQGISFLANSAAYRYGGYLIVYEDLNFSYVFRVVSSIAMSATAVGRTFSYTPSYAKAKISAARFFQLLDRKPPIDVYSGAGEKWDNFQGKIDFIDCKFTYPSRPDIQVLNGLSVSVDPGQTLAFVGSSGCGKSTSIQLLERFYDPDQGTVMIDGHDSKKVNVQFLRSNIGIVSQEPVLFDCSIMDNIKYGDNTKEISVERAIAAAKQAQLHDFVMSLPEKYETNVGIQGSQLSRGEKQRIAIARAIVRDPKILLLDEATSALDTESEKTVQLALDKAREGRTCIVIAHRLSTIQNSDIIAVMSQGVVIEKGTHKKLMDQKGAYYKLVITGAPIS
# ATP-binding cassette sub-family C member 3, sequence (B2RX12 whole entry): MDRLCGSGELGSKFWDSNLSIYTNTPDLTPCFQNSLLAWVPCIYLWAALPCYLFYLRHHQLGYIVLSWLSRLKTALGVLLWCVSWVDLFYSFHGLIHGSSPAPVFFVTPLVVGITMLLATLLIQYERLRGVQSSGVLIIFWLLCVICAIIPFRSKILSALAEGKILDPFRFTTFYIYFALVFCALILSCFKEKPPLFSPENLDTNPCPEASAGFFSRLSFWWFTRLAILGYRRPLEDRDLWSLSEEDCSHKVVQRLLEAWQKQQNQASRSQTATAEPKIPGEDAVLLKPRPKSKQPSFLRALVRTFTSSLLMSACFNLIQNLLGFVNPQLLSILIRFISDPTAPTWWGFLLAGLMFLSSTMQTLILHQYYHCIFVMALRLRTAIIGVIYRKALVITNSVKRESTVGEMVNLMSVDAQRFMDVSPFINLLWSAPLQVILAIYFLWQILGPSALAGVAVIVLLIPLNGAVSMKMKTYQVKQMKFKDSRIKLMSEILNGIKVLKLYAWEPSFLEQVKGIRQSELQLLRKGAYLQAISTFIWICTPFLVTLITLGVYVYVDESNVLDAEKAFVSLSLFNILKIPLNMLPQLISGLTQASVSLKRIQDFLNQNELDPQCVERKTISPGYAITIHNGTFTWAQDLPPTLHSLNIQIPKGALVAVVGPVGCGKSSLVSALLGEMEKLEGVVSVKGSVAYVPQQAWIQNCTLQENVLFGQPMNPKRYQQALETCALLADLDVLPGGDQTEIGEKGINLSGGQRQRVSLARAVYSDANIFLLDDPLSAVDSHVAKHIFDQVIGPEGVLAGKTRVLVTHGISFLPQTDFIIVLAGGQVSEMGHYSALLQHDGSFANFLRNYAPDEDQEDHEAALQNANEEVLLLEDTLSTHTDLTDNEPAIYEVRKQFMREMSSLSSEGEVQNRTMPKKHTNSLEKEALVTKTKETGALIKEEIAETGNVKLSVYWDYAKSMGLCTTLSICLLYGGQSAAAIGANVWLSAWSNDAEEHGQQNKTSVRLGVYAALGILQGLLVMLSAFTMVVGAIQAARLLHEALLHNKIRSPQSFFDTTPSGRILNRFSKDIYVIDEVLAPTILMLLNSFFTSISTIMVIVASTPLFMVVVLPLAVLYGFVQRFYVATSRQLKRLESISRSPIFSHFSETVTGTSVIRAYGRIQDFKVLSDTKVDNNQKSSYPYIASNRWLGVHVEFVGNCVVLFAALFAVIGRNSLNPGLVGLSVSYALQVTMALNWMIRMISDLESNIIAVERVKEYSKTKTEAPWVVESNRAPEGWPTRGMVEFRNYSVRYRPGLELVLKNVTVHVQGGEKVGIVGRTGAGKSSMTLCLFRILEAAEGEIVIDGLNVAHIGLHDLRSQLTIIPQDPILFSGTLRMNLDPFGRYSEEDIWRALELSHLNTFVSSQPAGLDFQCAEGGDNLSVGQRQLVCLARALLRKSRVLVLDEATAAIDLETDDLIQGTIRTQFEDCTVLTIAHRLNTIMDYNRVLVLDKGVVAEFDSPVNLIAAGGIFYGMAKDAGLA
# ATP-binding cassette sub-family C member 2, sequence (Q8VI47 whole entry): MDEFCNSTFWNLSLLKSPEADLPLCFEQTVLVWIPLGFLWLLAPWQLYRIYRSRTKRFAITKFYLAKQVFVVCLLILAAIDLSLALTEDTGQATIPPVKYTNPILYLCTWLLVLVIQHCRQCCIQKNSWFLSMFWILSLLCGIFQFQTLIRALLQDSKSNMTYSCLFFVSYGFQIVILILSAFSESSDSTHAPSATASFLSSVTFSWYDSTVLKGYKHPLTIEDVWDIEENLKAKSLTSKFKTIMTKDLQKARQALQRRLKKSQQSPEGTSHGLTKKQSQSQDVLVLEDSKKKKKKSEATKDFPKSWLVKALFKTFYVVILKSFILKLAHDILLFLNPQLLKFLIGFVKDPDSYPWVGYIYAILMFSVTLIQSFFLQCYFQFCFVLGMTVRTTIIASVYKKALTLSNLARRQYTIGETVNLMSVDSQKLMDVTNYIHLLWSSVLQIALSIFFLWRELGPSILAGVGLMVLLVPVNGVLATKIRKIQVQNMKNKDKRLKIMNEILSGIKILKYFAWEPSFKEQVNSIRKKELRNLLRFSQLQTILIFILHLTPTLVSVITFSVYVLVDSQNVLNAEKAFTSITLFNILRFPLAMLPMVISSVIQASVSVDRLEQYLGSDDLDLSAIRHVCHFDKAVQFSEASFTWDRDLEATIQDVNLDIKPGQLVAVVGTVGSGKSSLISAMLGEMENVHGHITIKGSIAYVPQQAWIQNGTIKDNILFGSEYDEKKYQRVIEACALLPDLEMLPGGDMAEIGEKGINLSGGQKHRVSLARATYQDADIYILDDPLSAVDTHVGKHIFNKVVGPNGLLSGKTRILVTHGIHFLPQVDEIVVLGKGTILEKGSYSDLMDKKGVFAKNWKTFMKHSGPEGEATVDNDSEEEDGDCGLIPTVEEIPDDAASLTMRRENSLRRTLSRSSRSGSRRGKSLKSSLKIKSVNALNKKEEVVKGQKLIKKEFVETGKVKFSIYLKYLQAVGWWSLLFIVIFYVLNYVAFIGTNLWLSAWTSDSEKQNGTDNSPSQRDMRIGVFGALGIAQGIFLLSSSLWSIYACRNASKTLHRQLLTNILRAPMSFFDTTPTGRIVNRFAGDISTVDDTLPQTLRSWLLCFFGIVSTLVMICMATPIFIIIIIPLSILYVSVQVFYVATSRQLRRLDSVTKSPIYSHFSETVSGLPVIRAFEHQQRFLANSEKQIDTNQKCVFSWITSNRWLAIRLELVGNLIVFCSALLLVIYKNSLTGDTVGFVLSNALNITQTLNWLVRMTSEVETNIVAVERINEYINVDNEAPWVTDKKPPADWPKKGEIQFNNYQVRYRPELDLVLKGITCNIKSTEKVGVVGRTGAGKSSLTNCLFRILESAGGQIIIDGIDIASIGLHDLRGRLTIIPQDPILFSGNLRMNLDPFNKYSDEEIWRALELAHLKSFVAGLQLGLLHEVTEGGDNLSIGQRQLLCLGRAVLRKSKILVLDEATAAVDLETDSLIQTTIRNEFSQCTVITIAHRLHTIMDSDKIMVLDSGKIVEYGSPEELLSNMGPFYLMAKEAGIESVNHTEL
# Multidrug resistance-associated protein 1, sequence (O35379 whole entry): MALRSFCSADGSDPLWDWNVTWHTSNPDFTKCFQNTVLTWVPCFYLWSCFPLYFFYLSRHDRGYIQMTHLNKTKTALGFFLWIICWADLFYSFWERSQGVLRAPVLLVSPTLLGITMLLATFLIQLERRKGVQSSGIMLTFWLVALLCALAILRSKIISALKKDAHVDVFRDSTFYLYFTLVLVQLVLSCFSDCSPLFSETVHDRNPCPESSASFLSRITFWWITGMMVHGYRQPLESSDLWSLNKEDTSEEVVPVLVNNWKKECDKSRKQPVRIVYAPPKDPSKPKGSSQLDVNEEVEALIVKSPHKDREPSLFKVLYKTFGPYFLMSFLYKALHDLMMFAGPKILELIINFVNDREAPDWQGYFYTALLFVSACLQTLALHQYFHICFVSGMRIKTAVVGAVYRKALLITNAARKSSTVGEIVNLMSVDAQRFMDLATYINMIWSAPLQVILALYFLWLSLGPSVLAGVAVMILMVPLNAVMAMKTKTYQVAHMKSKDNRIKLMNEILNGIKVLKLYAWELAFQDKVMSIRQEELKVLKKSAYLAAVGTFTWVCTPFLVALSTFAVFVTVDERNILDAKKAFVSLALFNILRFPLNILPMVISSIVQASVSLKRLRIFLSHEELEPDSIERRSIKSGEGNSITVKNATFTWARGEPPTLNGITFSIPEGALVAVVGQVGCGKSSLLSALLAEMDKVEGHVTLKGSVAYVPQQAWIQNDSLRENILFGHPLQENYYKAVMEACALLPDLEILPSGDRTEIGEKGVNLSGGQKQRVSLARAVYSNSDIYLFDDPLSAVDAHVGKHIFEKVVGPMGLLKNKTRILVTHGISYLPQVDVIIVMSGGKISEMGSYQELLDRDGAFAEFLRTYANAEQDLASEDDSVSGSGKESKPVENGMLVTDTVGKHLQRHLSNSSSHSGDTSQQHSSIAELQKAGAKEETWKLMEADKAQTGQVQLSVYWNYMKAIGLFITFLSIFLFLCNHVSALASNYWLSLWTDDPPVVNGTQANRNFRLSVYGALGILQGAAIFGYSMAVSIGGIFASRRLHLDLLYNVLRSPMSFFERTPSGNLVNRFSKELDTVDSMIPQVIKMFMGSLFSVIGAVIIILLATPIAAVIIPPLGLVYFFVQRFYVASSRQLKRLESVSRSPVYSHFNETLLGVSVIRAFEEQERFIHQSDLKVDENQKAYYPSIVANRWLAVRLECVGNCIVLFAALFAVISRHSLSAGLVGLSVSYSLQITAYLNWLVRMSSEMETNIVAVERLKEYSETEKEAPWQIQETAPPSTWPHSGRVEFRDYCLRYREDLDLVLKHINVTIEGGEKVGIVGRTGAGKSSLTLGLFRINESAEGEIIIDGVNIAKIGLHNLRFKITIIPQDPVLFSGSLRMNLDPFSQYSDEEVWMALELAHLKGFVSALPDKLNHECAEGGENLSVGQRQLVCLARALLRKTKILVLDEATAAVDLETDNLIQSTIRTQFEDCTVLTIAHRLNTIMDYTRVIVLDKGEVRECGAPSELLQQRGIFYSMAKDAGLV
Molecule,Activity [1],Activity [2],Activity [3],Activity [4],Activity [5],Activity (Bile salt export pump)
CCCCCCCCCCCCCC(=O)OC(CCCCCCCCCCC)CC(=O)OC1C(NC(=O)CC(CCCCCCCCCCC)OC(=O)CCCCCCCCCCC)C(OC2CC(OC(=O)CC(O)CCCCCCCCCCC)C(NC(=O)CC(O)CCCCCCCCCCC)C(O)O2)OC(CO)C1OP(=O)(O)O (stereo not given),inducer [Decrease],is not an inducer [-],inducer [Decrease],inducer [Decrease],inducer [Decrease],inducer [Decrease]
INTERLEUKIN 1BETA,is not an inducer [-],,inducer [Decrease],inducer [Decrease],inducer [Decrease],inducer [Decrease]
TURPENTINE,is not an inducer [-],,inducer [Decrease],inducer [Decrease],inducer [Decrease],inducer [Decrease]
C[C@H](CCC(=O)NCCS(=O)(=O)O)[C@H]1CC[C@H]2[C@@H]3CC[C@@H]4C[C@H](O)CC[C@]4(C)[C@H]3C[C@H](O)[C@]12C [TAURODEOXYCHOLIC ACID],,is not an inducer [-],is not an inducer [-],is not an inducer [-],is not an inducer [-],inducer [+]
INTERLEUKIN 6,,,inducer [Decrease],inducer [Decrease],inducer [Decrease],inducer [Decrease]
